According to patent publication US9302991B2, “Arylamide derivatives as TTX-S blockers” (RaQualia Pharma Inc., priority 2010, dated 2016):

Biological target: T1, human Nav1.5 channels (Homo sapiens, UniProt Q14524)
T1 construct: expressed in transfected cells; host or cells: HEK293
Assay: FRET assay, human Nav1.5 (EFS on FDSS)
Assay type: cell-based
Conditions: HEK293 cells expressing human Nav1.5, read-out: activities against Nav1.5
Experimental: The inhibitory activities of compounds against voltage gated sodium channels are determined by methodology well known in the art.
The ability of the aryl substituted carboxamide derivatives of the formula (I) to inhibit the NaV1.3, Nav1.7 and Nav1.5 channels is measured by Fluorescence Resonance Energy Transfer (FRET) assay and electrophysiology assay described below.
This screen is used to determine the effects of compounds on human Nav1.3, human Nav1.7, and human Nav1.5 channels, utilising electrical field stimulation (EFS) system in 96-well plate format on FDSS (Hamamatsu Photonics) platform. The change of membrane potential is monitored with FRET dye pair, oxonol (DiSBAC2(3)) and coumarin (CC2-DMPE).
Each HEK293 cells expressing human Nav1.3 channels and HEK293 cells expressing human Nav1.5 channels are grown in T225 flasks, in a 5% CO2 humidified incubator to about 80% confluence. Media composition consists of Dulbecco's Modified Eagle Medium (high glucose), 10% FCS, 100 units/mL Penicillin, 100 microgram/mL Streptomycin and 500 microgram/mL Geneticine. […]
The data are analyzed and reported as normalized ratios of intensities measured at […]. […]
This analysis is performed using a computerized specific program designed for FDSS generated data. Fluorescence ratio values are plotted using XLfit to determine an IC50 value for each compound.

T1 sequence (Q14524 whole entry): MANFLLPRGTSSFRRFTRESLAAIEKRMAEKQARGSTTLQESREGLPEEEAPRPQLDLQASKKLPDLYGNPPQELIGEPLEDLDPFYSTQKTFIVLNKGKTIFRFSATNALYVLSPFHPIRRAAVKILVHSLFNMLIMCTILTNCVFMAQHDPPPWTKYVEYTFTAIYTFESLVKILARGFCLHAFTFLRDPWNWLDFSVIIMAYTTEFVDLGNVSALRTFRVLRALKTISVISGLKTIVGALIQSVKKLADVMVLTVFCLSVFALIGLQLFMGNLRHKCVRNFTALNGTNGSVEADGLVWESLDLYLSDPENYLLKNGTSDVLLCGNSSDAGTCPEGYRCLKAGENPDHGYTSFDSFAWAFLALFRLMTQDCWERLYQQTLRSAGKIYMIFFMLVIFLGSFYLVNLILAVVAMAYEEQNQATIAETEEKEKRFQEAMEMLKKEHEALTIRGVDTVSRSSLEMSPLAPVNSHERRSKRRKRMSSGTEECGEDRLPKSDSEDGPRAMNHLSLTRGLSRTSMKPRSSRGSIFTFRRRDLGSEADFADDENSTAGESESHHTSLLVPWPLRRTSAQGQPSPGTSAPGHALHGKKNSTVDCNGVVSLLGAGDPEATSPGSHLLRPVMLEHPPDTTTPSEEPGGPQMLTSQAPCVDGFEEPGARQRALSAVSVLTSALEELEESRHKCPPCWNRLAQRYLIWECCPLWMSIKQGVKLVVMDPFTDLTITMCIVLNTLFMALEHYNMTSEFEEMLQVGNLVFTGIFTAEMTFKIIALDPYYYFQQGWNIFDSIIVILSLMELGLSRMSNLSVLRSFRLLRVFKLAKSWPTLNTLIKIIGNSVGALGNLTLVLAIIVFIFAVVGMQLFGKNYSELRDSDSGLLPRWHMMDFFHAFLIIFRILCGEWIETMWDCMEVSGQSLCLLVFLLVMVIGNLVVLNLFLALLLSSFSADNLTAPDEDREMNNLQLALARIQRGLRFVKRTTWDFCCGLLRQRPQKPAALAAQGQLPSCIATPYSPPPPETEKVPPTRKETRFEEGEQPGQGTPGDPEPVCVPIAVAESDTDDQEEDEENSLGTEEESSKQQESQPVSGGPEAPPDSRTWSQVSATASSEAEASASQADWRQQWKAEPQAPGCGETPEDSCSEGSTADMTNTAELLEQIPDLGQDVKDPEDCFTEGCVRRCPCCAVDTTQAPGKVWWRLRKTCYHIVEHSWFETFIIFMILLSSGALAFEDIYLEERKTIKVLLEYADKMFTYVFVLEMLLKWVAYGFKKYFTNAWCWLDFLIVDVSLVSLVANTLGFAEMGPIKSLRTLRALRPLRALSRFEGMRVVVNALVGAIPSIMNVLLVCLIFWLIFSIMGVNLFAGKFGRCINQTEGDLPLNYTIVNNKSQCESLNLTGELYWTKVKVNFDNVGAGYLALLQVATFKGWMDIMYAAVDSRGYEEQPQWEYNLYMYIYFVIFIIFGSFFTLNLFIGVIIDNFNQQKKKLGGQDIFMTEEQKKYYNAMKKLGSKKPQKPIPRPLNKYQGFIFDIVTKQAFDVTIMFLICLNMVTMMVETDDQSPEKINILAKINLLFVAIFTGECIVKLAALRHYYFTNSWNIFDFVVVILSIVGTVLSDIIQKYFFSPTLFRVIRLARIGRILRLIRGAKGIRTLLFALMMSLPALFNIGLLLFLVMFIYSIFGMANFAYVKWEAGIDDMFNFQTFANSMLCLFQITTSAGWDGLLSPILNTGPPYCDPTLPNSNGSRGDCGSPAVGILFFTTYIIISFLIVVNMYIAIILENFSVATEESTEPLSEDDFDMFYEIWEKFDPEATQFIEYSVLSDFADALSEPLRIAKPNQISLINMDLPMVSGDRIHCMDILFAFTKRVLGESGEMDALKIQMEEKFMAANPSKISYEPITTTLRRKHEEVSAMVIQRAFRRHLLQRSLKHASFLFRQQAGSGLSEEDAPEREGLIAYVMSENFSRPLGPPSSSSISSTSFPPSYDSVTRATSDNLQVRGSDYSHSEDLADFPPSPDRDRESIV

CC(=O)Nc1cc(C(=O)NC(C)c2ccc(OCC(F)(F)F)nc2)ccn1 (single isomer, unassigned; (-)) [Example 1, (−)-2-acetamido-N-(1-(6-(2,2,2-trifluoroethoxy)pyridin-3-yl)ethyl)isonicotinamide]
IC50: > 30 µM
